{"source": "paper PMC12381781", "about": "“Structural and functional insights into the selective inhibition of mutant tau aggregation by purpurin and oleocanthal in frontotemporal dementia” (Protein Science : A Publication of the Protein Society, 2025)", "key": {"[1]": {"system": "Tau RD P301S FRET Biosensor cells", "experiment": "Biosensor cells treated with compound alone, no exogenous seeds", "type": "cell-based", "settings": "48 h", "experimental": "Figure S17. […] Tau RD P301S FRET Biosensor cells were treated with PUR or OLC at the indicated concentrations for 48 h in the absence of any exogenous tau seeds or aggregation mixtures. Cells were then imaged under the same conditions described in Figure 5 to assess spontaneous FRET signal (CFP/YFP inclusions) as a readout of intracellular tau aggregation. […] Scale bar: 100 µm."}, "R2R3 (N279K) tau peptide [2]": {"target": "T1, R2R3 (N279K) tau peptide (Homo sapiens, UniProt P10636, N596K)", "T1 sequence (P10636 592-653 N596K)": "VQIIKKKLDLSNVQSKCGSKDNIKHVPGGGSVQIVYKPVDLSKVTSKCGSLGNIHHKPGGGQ", "experiment": "ThT aggregation assay of monomeric R2R3 (N279K) peptide", "type": "biochemical", "settings": "for ThT-stained aggregates, confocal imaging: R2R3 N279K, end of ThT assay", "experimental": "(§1) The aggregation kinetics of tau peptides were monitored using a ThT assay. A 40 μL reaction mixture containing 15 μM ThT (Sigma‐Aldrich, Cat. # T3516‐5G) and 50 μM peptide in the absence (control) or presence of 0.1 μM, 1 μM, and 10 μM PUR or OLC was prepared on ice in aggregation buffer (20 mM Tris [pH 7.4], 100 mM NaCl, 1 mM ethylenediaminetetraacetic acid [EDTA]) containing 5 μM heparin (Sigma‐Aldrich, Cat. #H4784). dithiothreitol (DTT) was excluded to avoid its differential effects on the aggregation kinetics of tau peptides containing Cys291 or Cys322 and to prevent peroxide generation by redox‐active compounds like PUR, which can lead to oxidative artifacts and false‐positive inhibition signals, as reported in our previous study (Annadurai, Malina, Salmona, et al., [2022]). This mixture was then dispensed into a clear‐bottom, black 384‐well ViewPlate (Revvity, Waltham, MA, United States; Part # 6007460) and sealed with a TopSealA‐PLUS (Revvity) to prevent evaporation.\n(§2) Aggregation was monitored using EnSpire Multimode Plate Reader (Revvity) at 37°C with constant agitation (1000 rpm). To minimize condensation, the upper heater temperature was set to 2°C higher than the lower heater temperature. ThT fluorescence (ThT—λ ex: 460–490 nm and λem: 500–550 nm) was recorded every 5–10 min for 48 h.\n(§3) ThT fluorescence curves were fitted to a sigmoidal function in GraphPad Prism (version 10, San Diego, CA, USA) using the following equation:\n(§4) Y=Top/1+expV50–X/Slope , where Y is the ThT fluorescence intensity, X is time (h), Top is the maximum fluorescence intensity, V50 is the time to reach 50% of Top, and Slope describes the steepness of the aggregation transition. Baseline fluorescence at the start of the measurements was relatively low across samples and was not separately fitted. In samples showing early increases in fluorescence, the aggregation trajectory was modeled directly without introducing an independent baseline parameter.\n(§5) The V50 value obtained from each replicate was used as the aggregation t 1/2 for statistical analysis.\n(§6) To evaluate the effect of compounds on the extent of aggregation, the AUC was calculated for each replicate ThT fluorescence curve using GraphPad Prism. AUC values were then normalized to the mean AUC of the untreated control group and expressed as “aggregation (% of control),” serving as an indirect and comparative measure of fibril formation.\n(§7) Figure S11. Confocal imaging of ThT-stained aggregates formed in the presence of PUR and OLC (corresponding to Figure 3). At the end of the ThT aggregation assay, reaction mixtures containing WT or mutant R2R3 tau peptides (P301L, V287I, N279K), incubated in the absence (CTL) or presence of 10 µM PUR or OLC, were collected from assay wells, embedded in 0.05% low-melting agarose, and imaged. ThT fluorescence was acquired using a Yokogawa Cell Voyager 7000S high-content imaging system equipped with a 20× objective (Ex: 460–490 nm, Em: 500–550 nm) and analyzed with Signals Image Artist (Revvity). […] Scale bar: 20 μm."}, "R2R3 (V287I) tau peptide": {"target": "R2R3 (V287I) tau peptide (Homo sapiens, UniProt P10636, V604I)", "sequence (P10636 592-653 V604I)": "as the sequence (P10636 592-653 N596K) above, with K5N, V13I counted along it", "experiment": "ThT aggregation assay of monomeric R2R3 (V287I) peptide", "type": "biochemical", "settings": "for ThT-stained aggregates, confocal imaging: R2R3 V287I, compound 10 μM, end of ThT assay", "experimental": "as §1, §2, §3, §4, §5, §6\nFigure S11. Confocal imaging of ThT-stained aggregates formed in the presence of PUR and OLC (corresponding to Figure 3). […] ThT fluorescence was acquired using a Yokogawa Cell Voyager 7000S high-content imaging system equipped with a 20× objective (Ex: 460–490 nm, Em: 500–550 nm) and analyzed with Signals Image Artist (Revvity). […]"}, "R2R3 (WT) tau peptide": {"target": "T2, R2R3 (WT) tau peptide (Homo sapiens, UniProt P10636)", "T2 construct": "Peptides spanning R2R3—including PHF6 and PHF6*; purchased ProteoGenix (Schiltigheim, France); host or cells: chemical synthesis (custom peptide)", "T2 sequence (P10636 592-653 limits assumed)": "as the sequence (P10636 592-653 N596K) above, with K5N counted along it", "experiment": "ThT aggregation assay of monomeric R2R3 (WT) peptide", "type": "biochemical", "settings": "compound 10 μM; for ThT-stained aggregates, confocal imaging: R2R3 WT, end of ThT assay", "experimental": "as §1\nAggregation was monitored using EnSpire Multimode Plate Reader (Revvity) at 37°C with constant agitation (1000 rpm). […] ThT fluorescence (ThT—λ ex: 460–490 nm and λem: 500–550 nm) was recorded every 5–10 min for 48 h.\nas §3\nY=Top/1+expV50–X/Slope , where Y is the ThT fluorescence intensity, X is time (h), Top is the maximum fluorescence intensity, V50 is the time to reach 50% of Top, and Slope describes the steepness of the aggregation transition. Baseline fluorescence at the start of the measurements was relatively low across samples and was not separately fitted. In samples showing early increases in fluorescence, the aggregation trajectory was modeled directly without introducing an independent baseline parameter. […]\nTo evaluate the effect of compounds on the extent of aggregation, the AUC was calculated for each replicate ThT fluorescence curve using GraphPad Prism. […]"}, "R2R3 (P301L) tau peptide": {"target": "R2R3 (P301L) tau peptide (Homo sapiens, UniProt P10636, P618L)", "sequence (P10636 592-653 P618L)": "as the sequence (P10636 592-653 N596K) above, with K5N, P27L counted along it", "experiment": "ThT aggregation assay of monomeric R2R3 (P301L) peptide", "type": "biochemical", "settings": "for ThT-stained aggregates, confocal imaging: R2R3 P301L, end of ThT assay", "experimental": "as §1, §2, §3, §4, §5, §6, §7"}, "R2R3 (N279K) tau peptide [3]": {"target": "T1, R2R3 (N279K) tau peptide", "experiment": "Atomic force microscopy of R2R3 (N279K) aggregates", "type": "biochemical", "settings": "compound 10 μM, 48 h", "experimental": "Aggregates collected after 48 h of aggregation were processed for AFM analysis as described previously (Annadurai, Malina, Malohlava, et al., [2022])."}, "[4]": {"system": "preformed R2R3 (N279K) fibrils", "experiment": "Elongation of preformed R2R3 (N279K) fibrils, ThT", "type": "biochemical", "settings": "R2R3 N279K pre-aggregated 24 h, compound 10 μM", "experimental": "Peptides were pre‐aggregated for 24 h with aggregation kinetics monitored by ThT fluorescence, after which 10 μM PUR or OLC was added, followed by an additional 24–30 h of incubation (Figure 4a). Aggregation kinetics was monitored by ThT fluorescence, and elongation was quantified as the AUC following compound addition, normalized to each replicate's maximum pre‐treatment fluorescence (Figure 4b). […] WT peptide fibril elongation was reduced to 15.5 ± 2.8% (PUR) and 45.2 ± 3.2% (OLC), and P301L peptide fibril elongation was limited to 31.8 ± 0.6% (PUR) and 85.6 ± 2.2% (OLC) (Figure 4b). Fluorescence microscopy imaging further confirmed the presence of reduced ThT‐positive aggregates following the addition of PUR and OLC (Figure S12). Similar inhibition trends, with PUR outperforming OLC, were also observed for V287I and N279K peptides (Figure S12).\nFigure S13. […] (a) ThT fluorescence kinetics of pre-aggregated R2R3 (V287I and N279K ) tau peptides treated with PUR or OLC (10 µM). Peptides were first allowed to aggregate for 24 h, followed by compound addition and continued incubation for an additional 24-30 h. […] Curves are normalized to each replicate’s maximum pre-treatment ThT fluorescence. […] (b) Aggregation levels post-treatment, expressed as a percentage of control (untreated fibrils), calculated from the AUC after compound addition. […]"}}, "note": "“Also recorded” adds a separate entry of the source.", "data": [{"smiles": "C/C=C(/C=O)[C@@H](CC=O)CC(=O)OCCc1ccc(O)cc1", "note": "[OLC, oleocanthal]", "values": [{"measurement": "induction of endogenous tau aggregation (FRET-positive inclusions) by compound alone", "setting": "[1]", "value": "No FRET-positive aggregates were detected; also recorded: no FRET‐positive inclusions were detected"}, {"measurement": "aggregation (% of control), AUC of ThT fluorescence", "setting": "R2R3 (N279K) tau peptide [2]; R2R3 N279K 50 μM, compound 0.1 μM", "value": 74, "unit": "%"}, {"measurement": "aggregation (% of control), AUC of ThT fluorescence", "setting": "R2R3 (N279K) tau peptide [2]; R2R3 N279K 50 μM, compound 1 μM", "value": 61, "unit": "%"}, {"measurement": "aggregation, ThT fluorescence", "setting": "R2R3 (N279K) tau peptide [2]; R2R3 N279K 50 μM, compound 10 μM", "value": "complete aggregation suppression"}, {"measurement": "ThT-stained aggregates, confocal imaging", "setting": "R2R3 (N279K) tau peptide [2]; compound 10 μM", "value": "marked reduction in ThT signal"}, {"measurement": "aggregation (% of control), AUC of ThT fluorescence", "setting": "R2R3 (V287I) tau peptide; R2R3 V287I 50 μM, compound 0.1 μM", "value": 71, "unit": "%"}, {"measurement": "ThT-stained aggregates, confocal imaging", "setting": "R2R3 (V287I) tau peptide", "value": "marked reduction in ThT signal"}, {"measurement": "ThT-stained aggregates, confocal imaging", "setting": "R2R3 (WT) tau peptide", "value": "moderate reduction in fluorescence intensity"}, {"measurement": "aggregation (% of control), AUC of ThT fluorescence", "setting": "R2R3 (P301L) tau peptide; R2R3 P301L 50 μM, compound 0.1 μM", "value": 8, "unit": "%"}, {"measurement": "aggregation (% of control), AUC of ThT fluorescence", "setting": "R2R3 (P301L) tau peptide; R2R3 P301L 50 μM, compound 10 μM", "value": "below 10%"}, {"measurement": "ThT-stained aggregates, confocal imaging", "setting": "R2R3 (P301L) tau peptide; compound 10 μM", "value": "marked reduction in ThT signal"}, {"measurement": "AFM morphology of aggregates", "setting": "R2R3 (N279K) tau peptide [3]", "value": "no fibrillar or aggregated structures were detected"}, {"measurement": "elongation of preformed fibrils", "setting": "[4]", "value": "inhibit the elongation"}]}, {"smiles": "O=C1c2ccccc2C(=O)c2c(O)c(O)cc(O)c21", "note": "[PUR, purpurin]", "values": [{"measurement": "induction of endogenous tau aggregation (FRET-positive inclusions) by compound alone", "setting": "[1]", "value": "No FRET-positive aggregates were detected; also recorded: no FRET‐positive inclusions were detected"}, {"measurement": "remaining activity at 0.1 µM", "setting": "R2R3 (N279K) tau peptide [2]; R2R3 N279K 50 μM, compound 0.1 μM, read-out: aggregation (% of control), AUC of ThT fluorescence", "value": 44, "unit": "%"}, {"measurement": "remaining activity at 1 µM", "setting": "R2R3 (N279K) tau peptide [2]; R2R3 N279K 50 μM, compound 1 μM, read-out: aggregation (% of control), AUC of ThT fluorescence", "value": 19, "unit": "%"}, {"measurement": "ThT-stained aggregates, confocal imaging", "setting": "R2R3 (N279K) tau peptide [2]; compound 10 μM", "value": "marked reduction in ThT signal"}, {"measurement": "remaining activity at 0.1 µM", "setting": "R2R3 (V287I) tau peptide; R2R3 V287I 50 μM, compound 0.1 μM, read-out: aggregation (% of control), AUC of ThT fluorescence", "value": 44, "unit": "%"}, {"measurement": "ThT-stained aggregates, confocal imaging", "setting": "R2R3 (V287I) tau peptide", "value": "marked reduction in ThT signal"}, {"measurement": "remaining activity at 10 µM", "setting": "R2R3 (WT) tau peptide; R2R3 WT 50 μM, read-out: aggregation (% of control), AUC of ThT fluorescence", "value": 63, "unit": "%"}, {"measurement": "ThT-stained aggregates, confocal imaging", "setting": "R2R3 (WT) tau peptide", "value": "moderate reduction in fluorescence intensity"}, {"measurement": "remaining activity at 0.1 µM", "setting": "R2R3 (P301L) tau peptide; R2R3 P301L 50 μM, compound 0.1 μM, read-out: aggregation (% of control), AUC of ThT fluorescence", "value": 47, "unit": "%"}, {"measurement": "remaining activity at 10 µM", "setting": "R2R3 (P301L) tau peptide; R2R3 P301L 50 μM, compound 10 μM, read-out: aggregation (% of control), AUC of ThT fluorescence", "value": "< 10", "unit": "%"}, {"measurement": "ThT-stained aggregates, confocal imaging", "setting": "R2R3 (P301L) tau peptide; compound 10 μM", "value": "marked reduction in ThT signal"}, {"measurement": "AFM morphology of aggregates", "setting": "R2R3 (N279K) tau peptide [3]", "value": "no fibrillar or aggregated structures were detected"}, {"measurement": "elongation of preformed fibrils", "setting": "[4]", "value": "inhibit the elongation"}]}]}
